The text below walks through data of US8952157B2, “Apoptosis-inducing agents for the treatment of cancer and immune and autoimmune diseases” (AbbVie Inc., priority 2008, dated 2015).

The target in the experiment is GST-Bcl-2 (Homo sapiens (Human), UniProt P10415). Nature of the experiment: Time Resolved-Fluorescence Resonance Energy Transfer (TR-FRET) Bcl-2 binding assay. The settings on record: GST-Bcl-2 1 nM, F-Bak peptide probe 100 nM, Tb-anti-GST antibody 1 nM; Ki by Wang's equation. The procedure, abridged: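 Competition TR-FRET: GST-Bcl-2 with fluorescent Bak peptide probe and Tb-anti-GST antibody, compounds serially diluted from 50 μM (2× start, 10% DMSO).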
GST-Bcl-2, sequence (P10415 whole entry): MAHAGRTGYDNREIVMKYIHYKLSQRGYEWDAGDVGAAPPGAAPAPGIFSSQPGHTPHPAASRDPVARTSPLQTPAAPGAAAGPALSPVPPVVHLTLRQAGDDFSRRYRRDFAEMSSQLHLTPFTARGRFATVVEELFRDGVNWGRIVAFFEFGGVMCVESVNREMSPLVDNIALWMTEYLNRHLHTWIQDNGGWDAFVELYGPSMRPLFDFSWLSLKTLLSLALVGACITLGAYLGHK
The molecule `CN1CCC(Nc2ccc(S(=O)(=O)NC(=O)c3ccc(N4CCN(CC5=C(c6ccc(Cl)cc6)CC(C)(C)CC5)CC4)cc3Oc3cccc(Cl)c3)cc2S(=O)(=O)C(F)(F)F)CC1` [Example 131, 2-(3-chlorophenoxy)-4-(4-{[2-(4-chlorophenyl)-4,4-dimethylcyclohex-1-en-1-yl]methyl}piperazin-1-yl)-N-({4-[(1-methylpiperidin-4-yl)amino]-3-[(trifluoromethyl)sulfonyl]phenyl}sulfonyl)benzamide] gave a Ki of 66 pM.
The molecule `CC1(C)CCC(CN2CCN(c3ccc(C(=O)NS(=O)(=O)c4ccc(NC5CCN(C6CC6)CC5)c([N+](=O)[O-])c4)c(Oc4cccc(F)c4)c3)CC2)=C(c2ccc(Cl)cc2)C1` [Example 132, 4-(4-{[2-(4-chlorophenyl)-4,4-dimethylcyclohex-1-en-1-yl]methyl}piperazin-1-yl)-N-({4-[(1-cyclopropylpiperidin-4-yl)amino]-3-nitrophenyl}sulfonyl)-2-(3-fluorophenoxy)benzamide] gave a Ki of 211 pM. This Ki is about 3.2-fold higher than that of the molecule before.
Molecule `CC1(C)CCC(CN2CCN(c3ccc(C(=O)NS(=O)(=O)c4ccc(NC5CCN(C6CCCC6)CC5)c([N+](=O)[O-])c4)c(Oc4cccc(F)c4F)c3)CC2)=C(c2ccc(Cl)cc2)C1` [Example 133, 4-(4-{[2-(4-chlorophenyl)-4,4-dimethylcyclohex-1-en-1-yl]methyl}piperazin-1-yl)-N-({4-[(1-cyclopentylpiperidin-4-yl)amino]-3-nitrophenyl}sulfonyl)-2-(2,3-difluorophenoxy)benzamide] returned a Ki of 55 pM.
`CC1(C)CCC(CN2CCN(c3ccc(C(=O)NS(=O)(=O)c4ccc(NCCN5CCOCC5)c([N+](=O)[O-])c4)c(Oc4cccc(F)c4F)c3)CC2)=C(c2ccc(Cl)cc2)C1` [Example 135, 4-(4-{[2-(4-chlorophenyl)-4,4-dimethylcyclohex-1-en-1-yl]methyl}piperazin-1-yl)-2-(2,3-difluorophenoxy)-N-({4-[(2-morpholin-4-ylethyl)amino]-3-nitrophenyl}sulfonyl)benzamide]: the affinity corresponds to a Ki of 68 pM.
To `CC1(C)CCC(CN2CCN(c3ccc(C(=O)NS(=O)(=O)c4ccc(NC5CCN(Cc6ccsc6)CC5)c([N+](=O)[O-])c4)c(Oc4cccc(F)c4F)c3)CC2)=C(c2ccc(Cl)cc2)C1` [Example 136, 4-(4-{[2-(4-chlorophenyl)-4,4-dimethylcyclohex-1-en-1-yl]methyl}piperazin-1-yl)-2-(2,3-difluorophenoxy)-N-[(3-nitro-4-{[1-(thien-3-ylmethyl)piperidin-4-yl]amino}phenyl)sulfonyl]benzamide] belongs 177 pM.
As to `CN(C)CCCNc1ccc(S(=O)(=O)NC(=O)c2ccc(N3CCN(CC4=C(c5ccc(Cl)cc5)CC(C)(C)CC4)CC3)cc2Oc2ccccc2F)cc1[N+](=O)[O-]` [Example 137, 4-(4-{[2-(4-chlorophenyl)-4,4-dimethylcyclohex-1-en-1-yl]methyl}piperazin-1-yl)-N-[(4-{[3-(dimethylamino)propyl]amino}-3-nitrophenyl)sulfonyl]-2-(2-fluorophenoxy)benzamide], the Ki is 21 pM.
The same measure for `CN(C)CCCNc1ccc(S(=O)(=O)NC(=O)c2ccc(N3CCN(CC4=C(c5ccc(Cl)cc5)CC(C)(C)CC4)CC3)cc2Oc2cccc(F)c2)cc1[N+](=O)[O-]` [Example 138, 4-(4-{[2-(4-chlorophenyl)-4,4-dimethylcyclohex-1-en-1-yl]methyl}piperazin-1-yl)-N-[(4-{[3-(dimethylamino)propyl]amino}-3-nitrophenyl)sulfonyl]-2-(3-fluorophenoxy)benzamide]: 16 pM.
As for `CN(C)CCCNc1ccc(S(=O)(=O)NC(=O)c2ccc(N3CCN(CC4=C(c5ccc(Cl)cc5)CC(C)(C)CC4)CC3)cc2Oc2ccc(F)cc2)cc1[N+](=O)[O-]` [Example 139, 4-(4-{[2-(4-chlorophenyl)-4,4-dimethylcyclohex-1-en-1-yl]methyl}piperazin-1-yl)-N-[(4-{[3-(dimethylamino)propyl]amino}-3-nitrophenyl)sulfonyl]-2-(4-fluorophenoxy)benzamide], the inhibitory constant (Ki) came out at 125 pM.
As for `CC1(C)CCC(CN2CCN(c3ccc(C(=O)NS(=O)(=O)c4ccc(NC5CCN(CCF)CC5)c([N+](=O)[O-])c4)c(Oc4cccc(F)c4F)c3)CC2)=C(c2ccc(Cl)cc2)C1` [Example 140, 4-(4-{[2-(4-chlorophenyl)-4,4-dimethylcyclohex-1-en-1-yl]methyl}piperazin-1-yl)-2-(2,3-difluorophenoxy)-N-[(4-{[1-(2-fluoroethyl)piperidin-4-yl]amino}-3-nitrophenyl)sulfonyl]benzamide], the Ki stood at 223 pM.
Regarding `CC1(C)CCC(CN2CCN(c3ccc(C(=O)NS(=O)(=O)c4ccc(NCCN5CCOCC5)c([N+](=O)[O-])c4)c(Oc4cccc(Cl)c4)c3)CC2)=C(c2ccc(Cl)cc2)C1` [Example 141, 2-(3-chlorophenoxy)-4-(4-{[2-(4-chlorophenyl)-4,4-dimethylcyclohex-1-en-1-yl]methyl}piperazin-1-yl)-N-({4-[(2-morpholin-4-ylethyl)amino]-3-nitrophenyl}sulfonyl)benzamide], the Ki is 482 pM.
To `CN(C)CCCNc1ccc(S(=O)(=O)NC(=O)c2ccc(N3CCN(CC4=C(c5ccc(Cl)cc5)CC(C)(C)CC4)CC3)cc2Oc2cccc(Cl)c2)cc1[N+](=O)[O-]` [Example 142, 2-(3-chlorophenoxy)-4-(4-{[2-(4-chlorophenyl)-4,4-dimethylcyclohex-1-en-1-yl]methyl}piperazin-1-yl)-N-[(4-{[3-(dimethylamino)propyl]amino}-3-nitrophenyl)sulfonyl]benzamide] belongs 71 pM; to `CN1CCN(CCCNc2ccc(S(=O)(=O)NC(=O)c3ccc(N4CCN(CC5=C(c6ccc(Cl)cc6)CC(C)(C)CC5)CC4)cc3Oc3cccc(Cl)c3)cc2[N+](=O)[O-])CC1` [Example 143, 2-(3-chlorophenoxy)-4-(4-{[2-(4-chlorophenyl)-4,4-dimethylcyclohex-1-en-1-yl]methyl}piperazin-1-yl)-N-[(4-{[3-(4-methylpiperazin-1-yl)propyl]amino}-3-nitrophenyl)sulfonyl]benzamide], 53 pM.
In the case of `CN1CCC(Nc2ccc(S(=O)(=O)NC(=O)c3ccc(N4CCN(CC5=C(c6ccc(Cl)cc6)CC(C)(C)OC5)CC4)cc3Oc3cccc(Cl)c3)cc2[N+](=O)[O-])CC1` [Example 144, 2-(3-chlorophenoxy)-4-(4-{[4-(4-chlorophenyl)-6,6-dimethyl-5,6-dihydro-2H-pyran-3-yl]methyl}piperazin-1-yl)-N-({4-[(1-methylpiperidin-4-yl)amino]-3-nitrophenyl}sulfonyl)benzamide], the affinity, expressed as Ki, was 28 pM.
In turn, `CN1CCC(Nc2ccc(S(=O)(=O)NC(=O)c3ccc(N4CCN(CC5=C(c6ccc(Cl)cc6)CC(C)(C)OC5)CC4)cc3Oc3cccc(F)c3F)cc2[N+](=O)[O-])CC1` [Example 145, 4-(4-{[4-(4-chlorophenyl)-6,6-dimethyl-5,6-dihydro-2H-pyran-3-yl]methyl}piperazin-1-yl)-2-(2,3-difluorophenoxy)-N-({4-[(1-methylpiperidin-4-yl)amino]-3-nitrophenyl}sulfonyl)benzamide] had a Ki of 57 pM.
Take `C=CCN1CCC(Nc2ccc(S(=O)(=O)NC(=O)c3ccc(N4CCN(CC5=C(c6ccc(Cl)cc6)CC(C)(C)CC5)CC4)cc3Oc3cccc(F)c3F)cc2[N+](=O)[O-])CC1` [Example 146, N-({4-[(1-allylpiperidin-4-yl)amino]-3-nitrophenyl}sulfonyl)-4-(4-{[2-(4-chlorophenyl)-4,4-dimethylcyclohex-1-en-1-yl]methyl}piperazin-1-yl)-2-(2,3-difluorophenoxy)benzamide]: the affinity, expressed as Ki, was 40 pM.
Molecule `CN1CCC(Nc2ccc(S(=O)(=O)NC(=O)c3ccc(N4CCN(CC5=C(c6ccc(Cl)cc6)CC(C)(C)CC5)CC4)cc3Oc3cccc(Cl)c3F)cc2[N+](=O)[O-])CC1` [Example 147, 2-(3-chloro-2-fluorophenoxy)-4-(4-{[2-(4-chlorophenyl)-4,4-dimethylcyclohex-1-en-1-yl]methyl}piperazin-1-yl)-N-({4-[(1-methylpiperidin-4-yl)amino]-3-nitrophenyl}sulfonyl)benzamide] registered a Ki of 127 pM. This Ki lies about 3.2-fold higher than the previous one.
The same measure for `CC1(C)CCC(CN2CCN(c3ccc(C(=O)NS(=O)(=O)c4ccc(NCCCN5CCOCC5)c([N+](=O)[O-])c4)c(Oc4cccc(Cl)c4F)c3)CC2)=C(c2ccc(Cl)cc2)C1` [Example 148, 2-(3-chloro-2-fluorophenoxy)-4-(4-{[2-(4-chlorophenyl)-4,4-dimethylcyclohex-1-en-1-yl]methyl}piperazin-1-yl)-N-({4-[(3-morpholin-4-ylpropyl)amino]-3-nitrophenyl}sulfonyl)benzamide]: 106 pM; for `CC1(C)CCC(CN2CCN(c3ccc(C(=O)NS(=O)(=O)c4ccc(NCCN5CCOCC5)c([N+](=O)[O-])c4)c(Oc4cccc(Cl)c4F)c3)CC2)=C(c2ccc(Cl)cc2)C1` [Example 150, 2-(3-chloro-2-fluorophenoxy)-4-(4-{[2-(4-chlorophenyl)-4,4-dimethylcyclohex-1-en-1-yl]methyl}piperazin-1-yl)-N-({4-[(2-morpholin-4-ylethyl)amino]-3-nitrophenyl}sulfonyl)benzamide]: 759 pM; for `CN1CCC(Nc2ccc(S(=O)(=O)NC(=O)c3ccc(N4CCN(CC5=C(c6ccc(Cl)cc6)CC(C)(C)CC5)CC4)cc3Oc3c(F)cccc3Cl)cc2[N+](=O)[O-])CC1` [Example 151, 2-(2-chloro-6-fluorophenoxy)-4-(4-{[2-(4-chlorophenyl)-4,4-dimethylcyclohex-1-en-1-yl]methyl}piperazin-1-yl)-N-({4-[(1-methylpiperidin-4-yl)amino]-3-nitrophenyl}sulfonyl)benzamide]: 6940 pM.
The same measure for `CN1CCC(Nc2ccc(S(=O)(=O)NC(=O)c3ccc(N4CCN(CC5=C(c6ccc(Cl)cc6)CC(C)(C)CC5)CC4)cc3Oc3cc4cc[nH]c4cc3F)cc2[N+](=O)[O-])CC1` [Example 154, 4-(4-{[2-(4-chlorophenyl)-4,4-dimethylcyclohex-1-en-1-yl]methyl}piperazin-1-yl)-2-[(6-fluoro-1H-indol-5-yl)oxy]-N-({4-[(1-methylpiperidin-4-yl)amino]-3-nitrophenyl}sulfonyl)benzamide]: 12 pM.
